Measured values published in ChEMBL document CHEMBL3525908, “Chronic doxorubicin cardiotoxicity modulates cardiac cytochrome P450-mediated arachidonic acid metabolism in rats” (Drug Metab Dispos, 2012).

Legend:
H9c2 = assay: Cytotoxicity against rat H9c2 cells assessed as reduction in BNP mRNA expression at 1 uM after 6 hrs in presence of HET0016; format: cell-based; conditions: h9c2, 6 h
Rattus norvegicus [1] = assay: (§1) Induction of CYP450-mediated arachidonic acid metabolism in Sprague-Dawley rat heart microsomes assessed as 11,12-EET formation administered as cumulative dose of 15 mg/kg, ip divided into 6 injections for 2 weeks followed by compound washout period of 14 days by LC-ESI-MS analysis relative to control; format: ADME, organism-based; set-up: dose 15 mg/kg, route intraperitoneal; conditions: 336 h
CYP2J3 = assay: Toxicity in Sprague-Dawley rat assessed as induction of CYP2J3 gene expression in kidney administered as cumulative dose of 15 mg/kg, ip divided into 6 injections for 2 weeks followed by compound washout period of 14 days by RT-PCR analysis relative to control; format: organism-based; set-up: dose 15 mg/kg, route intraperitoneal
Rattus norvegicus [2] = assay: Toxicity in Sprague-Dawley rat assessed as CYP2E1 gene expression in kidney administered as cumulative dose of 15 mg/kg, ip divided into 6 injections for 2 weeks followed by compound washout period of 14 days by RT-PCR analysis relative to control; format: organism-based; set-up: dose 15 mg/kg, route intraperitoneal; conditions: in vivo, 336 h
Rattus norvegicus [3] = assay: Toxicity in Sprague-Dawley rat assessed as inhibition of CYP2B2 gene expression in kidney administered as cumulative dose of 15 mg/kg, ip divided into 6 injections for 2 weeks followed by compound washout period of 14 days by RT-PCR analysis relative to control; format: organism-based; set-up: dose 15 mg/kg, route intraperitoneal; conditions: in vivo, 336 h
CYP4F5 [4] = assay: Toxicity in Sprague-Dawley rat assessed as induction of CYP4F5 gene expression in liver administered as cumulative dose of 15 mg/kg, ip divided into 6 injections for 2 weeks followed by compound washout period of 14 days by RT-PCR analysis relative to control; format: organism-based; set-up: dose 15 mg/kg, route intraperitoneal
Rattus norvegicus [5] = assay: Toxicity in Sprague-Dawley rat assessed as CYP2C11 gene expression in kidney administered as cumulative dose of 15 mg/kg, ip divided into 6 injections for 2 weeks followed by compound washout period of 14 days by RT-PCR analysis relative to control; format: organism-based; set-up: dose 15 mg/kg, route intraperitoneal; conditions: in vivo, 336 h
Rattus norvegicus [6] = assay: Toxicity in Sprague-Dawley rat assessed as induction of IL-6 gene expression in liver administered as cumulative dose of 15 mg/kg, ip divided into 6 injections for 2 weeks followed by compound washout period of 14 days by RT-PCR analysis relative to control; format: organism-based; set-up: dose 15 mg/kg, route intraperitoneal; conditions: 336 h
Rattus norvegicus [7] = assay: as §1, with “14,15-EET” for “11,12-EET”; format: ADME, organism-based; set-up: dose 15 mg/kg, route intraperitoneal; conditions: 336 h
Rattus norvegicus [8] = assay: Toxicity in Sprague-Dawley rat assessed as CYP4F1 gene expression in kidney administered as cumulative dose of 15 mg/kg, ip divided into 6 injections for 2 weeks followed by compound washout period of 14 days by RT-PCR analysis relative to control; format: organism-based; set-up: dose 15 mg/kg, route intraperitoneal; conditions: in vivo, 336 h
Rattus norvegicus [9] = assay: Cardiotoxicity in Sprague-Dawley rat assessed as increase in CYP4F4 gene expression level administered as cumulative dose of 15 mg/kg, ip divided into 6 injections for 2 weeks followed by compound washout period of 14 days by RT-PCR analysis relative to control; format: toxicity, organism-based; set-up: dose 15 mg/kg, route intraperitoneal; conditions: in vivo, 336 h
Rattus norvegicus [10] = assay: Toxicity in Sprague-Dawley rat assessed as CYP4A1 gene expression in liver administered as cumulative dose of 15 mg/kg, ip divided into 6 injections for 2 weeks followed by compound washout period of 14 days by RT-PCR analysis relative to control; format: organism-based; set-up: dose 15 mg/kg, route intraperitoneal; conditions: in vivo, 336 h
Rattus norvegicus [11] = assay: Toxicity in Sprague-Dawley rat assessed as induction of TNF-alpha gene expression in kidney administered as cumulative dose of 15 mg/kg, ip divided into 6 injections for 2 weeks followed by compound washout period of 14 days by RT-PCR analysis relative to control; format: organism-based; set-up: dose 15 mg/kg, route intraperitoneal; conditions: 336 h
Rattus norvegicus [12] = assay: Toxicity in Sprague-Dawley rat assessed as inhibition of CYP2B2 gene expression in liver administered as cumulative dose of 15 mg/kg, ip divided into 6 injections for 2 weeks followed by compound washout period of 14 days by RT-PCR analysis relative to control; format: organism-based; set-up: dose 15 mg/kg, route intraperitoneal; conditions: in vivo, 336 h
Rattus norvegicus [13] = assay: Toxicity in Sprague-Dawley rat assessed as CYP2J3 gene expression in liver administered as cumulative dose of 15 mg/kg, ip divided into 6 injections for 2 weeks followed by compound washout period of 14 days by RT-PCR analysis relative to control; format: organism-based; set-up: dose 15 mg/kg, route intraperitoneal; conditions: in vivo, 336 h
Rattus norvegicus [14] = assay: Cardiotoxicity in Sprague-Dawley rat assessed as increase in alpha-MHC gene expression level administered as cumulative dose of 15 mg/kg, ip divided into 6 injections for 2 weeks followed by compound washout period of 14 days by RT-PCR analysis relative to control; format: toxicity, organism-based; set-up: dose 15 mg/kg, route intraperitoneal; conditions: in vivo, 336 h
CYP4F5 [15] = assay: Toxicity in Sprague-Dawley rat assessed as induction of CYP4F5 gene expression in kidney administered as cumulative dose of 15 mg/kg, ip divided into 6 injections for 2 weeks followed by compound washout period of 14 days by RT-PCR analysis relative to control; format: organism-based; set-up: dose 15 mg/kg, route intraperitoneal
Rattus norvegicus [16] = assay: Cardiotoxicity in Sprague-Dawley rat assessed as increase in sEH activity in heart microsomes administered as cumulative dose of 15 mg/kg, ip divided into 6 injections for 2 weeks followed by compound washout period of 14 days by RT-PCR analysis relative to control; format: toxicity, organism-based; set-up: dose 15 mg/kg, route intraperitoneal; conditions: 336 h
CYP1A2 = assay: Toxicity in Sprague-Dawley rat assessed as induction of CYP1A2 gene expression in liver administered as cumulative dose of 15 mg/kg, ip divided into 6 injections for 2 weeks followed by compound washout period of 14 days by RT-PCR analysis relative to control; format: organism-based; set-up: dose 15 mg/kg, route intraperitoneal
Rattus norvegicus [17] = assay: Cardiotoxicity in Sprague-Dawley rat assessed as increase in CYP4A1 gene expression level administered as cumulative dose of 15 mg/kg, ip divided into 6 injections for 2 weeks followed by compound washout period of 14 days by RT-PCR analysis relative to control; format: toxicity, organism-based; set-up: dose 15 mg/kg, route intraperitoneal; conditions: in vivo, 336 h
Rattus norvegicus [18] = assay: Toxicity in Sprague-Dawley rat assessed as sEH gene expression in kidney administered as cumulative dose of 15 mg/kg, ip divided into 6 injections for 2 weeks followed by compound washout period of 14 days by RT-PCR analysis; format: organism-based; set-up: dose 15 mg/kg, route intraperitoneal; conditions: in vivo, 336 h
Rattus norvegicus [19] = assay: Toxicity in Sprague-Dawley rat assessed as CYP4F1 gene expression in liver administered as cumulative dose of 15 mg/kg, ip divided into 6 injections for 2 weeks followed by compound washout period of 14 days by RT-PCR analysis relative to control; format: organism-based; set-up: dose 15 mg/kg, route intraperitoneal; conditions: in vivo, 336 h
CYP450 = assay: as §1, with “11,12-DHET” for “11,12-EET”; format: ADME, organism-based; set-up: dose 15 mg/kg, route intraperitoneal; conditions: probe arachidonic acid
Rattus norvegicus [20] = assay: Cardiotoxicity in Sprague-Dawley rat assessed as increase in CYP1A1 gene expression level administered as cumulative dose of 15 mg/kg, ip divided into 6 injections for 2 weeks followed by compound washout period of 14 days by RT-PCR analysis relative to control; format: toxicity, organism-based; set-up: dose 15 mg/kg, route intraperitoneal; conditions: in vivo, 336 h
CYP1A1 = assay: Toxicity in Sprague-Dawley rat assessed as induction of CYP1A1 gene expression in liver administered as cumulative dose of 15 mg/kg, ip divided into 6 injections for 2 weeks followed by compound washout period of 14 days by RT-PCR analysis relative to control; format: organism-based; set-up: dose 15 mg/kg, route intraperitoneal
CYP2E1 = assay: Cardiotoxicity in Sprague-Dawley rat assessed as increase in CYP2E1 gene expression level administered as cumulative dose of 15 mg/kg, ip divided into 6 injections for 2 weeks followed by compound washout period of 14 days by RT-PCR analysis relative to control; format: toxicity, organism-based; set-up: dose 15 mg/kg, route intraperitoneal; conditions: heart

With COc1cccc2c1C(=O)c1c(O)c3c(c(O)c1C2=O)C[C@@](O)(C(=O)CO)C[C@@H]3O[C@H]1C[C@H](N)[C@H](O)[C@H](C)O1 [DOXORUBICIN] the Activity (H9c2) was “Toxic”, the Activity (Rattus norvegicus [1]) was “Active” and the fold induction at 336 h (CYP2J3) was 1.6. The Activity (Rattus norvegicus [2]) was “Non-toxic”, the Ratio (Rattus norvegicus [3]) was 0.74 and the fold induction at 336 h (CYP4F5 [4]) was 1.8. For the same molecule, the Activity (Rattus norvegicus [5]) was “Non-toxic”, the fold induction at 15 mg/kg (Rattus norvegicus [6]) was 4.5 and the Activity (Rattus norvegicus [7]) was “Active”. For the same molecule, the Activity (Rattus norvegicus [8]) was “Non-toxic”, the Activity (Rattus norvegicus [9]) was “Non-toxic” and the Activity (Rattus norvegicus [10]) was “Non-toxic”. For the same molecule, the fold induction at 15 mg/kg (Rattus norvegicus [11]) was 2.9, the Ratio (Rattus norvegicus [12]) was 0.5 and the Activity (Rattus norvegicus [13]) was “Non-toxic”. For the same molecule, the Ratio (Rattus norvegicus [14]) was 1.6, the fold induction at 336 h (CYP4F5 [15]) was 1.7 and the Ratio (Rattus norvegicus [16]) was 1.6. For the same molecule, the fold induction at 336 h (CYP1A2) was 1.9, the Activity (Rattus norvegicus [17]) was “Non-toxic” and the Activity (Rattus norvegicus [18]) was “Non-toxic”. For the same molecule, the Activity (Rattus norvegicus [19]) was “Non-toxic”, the fold induction at 336 h (CYP450) was 1.9 and the Activity (Rattus norvegicus [20]) was “Non-toxic”. For the same molecule, the fold induction at 336 h (CYP1A1) was 2.8 and the fold induction at 336 h (CYP2E1) was 1.8.
